PubChem BioAssay (NCI)
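In this assay, cells in 96-well plates receive the compound at five concentrations for 48 hours. Endpoints are linearly interpolated between the surrounding concentrations. The concentration for 50% growth inhibition is given as GI50. At the TGI there is no net growth.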

Tests used:
Assay in all cases: growth of human tumour cells (NCI), 48 h
[1] = system: LOX IMVI melanoma
[2] = system: 786-0 renal
[3] = system: BT-549 breast
[4] = system: UO-31 renal
[5] = system: OVCAR-4 ovarian
[6] = system: COLO 205 colon
[7] = system: OVCAR-3 ovarian
[8] = system: UACC-62 melanoma

| Structure (SMILES) | GI50 [1] | TGI [1] | GI50 [2] | TGI [2] | GI50 [3] | TGI [3] | GI50 [4] | TGI [4] | GI50 [5] | TGI [5] | GI50 [6] | TGI [6] | GI50 [7] | TGI [7] | GI50 [8] | TGI [8] |
| --- | --- | --- | --- | --- | --- | --- | --- | --- | --- | --- | --- | --- | --- | --- | --- | --- |
| CNCCCn1c2c(c3ccc([N+](=O)[O-])cc3c1=O)C(=O)c1cc(OC)cnc1-2 | 0.0259 µM | 0.136 µM | 0.0362 µM | 0.189 µM | 0.373 µM | 2.56 µM | 0.0341 µM | 0.221 µM | 0.173 µM | 10.1 µM | 0.0569 µM | 0.636 µM | 0.174 µM | 0.617 µM | 0.02 µM | 0.122 µM |
| Cc1ccc(-c2nc(C#N)c(S(=O)(=O)n3nc(C)cc3N)o2)cc1 | 1.86 µM | 3.59 µM | 2.35 µM | 6.35 µM | 3.85 µM | 14.8 µM | 1.74 µM | 3.33 µM | 4.26 µM | 20.7 µM | 2.15 µM | 4.19 µM | 2.08 µM | 3.73 µM | 6.32 µM | 19.8 µM |
| CCC(C)[C@H]1O[C@]2(C=C[C@@H]1C)C[C@@H]1C[C@@H](C/C=C(\C)[C@@H](OC3C[C@H](OC)C(O[C@H]4C[C@H](OC)[C@@H](O)[C@H](C)O4)[C@H](C)O3)[C@@H](C)/C=C/C=C3\CO[C@@H]4[C@H](O)C(C)=C[C@@H](C(=O)O1)[C@]34O)O2 (stereo partly specified) |  |  | 0.728 µM | 1.56 µM | 0.864 µM | 1.66 µM | 0.807 µM | 1.73 µM | 1.67 µM | 4.76 µM | 0.86 µM | 1.62 µM | 0.904 µM | 1.66 µM | 1.53 µM | 7.64 µM |
| O=C(O)C1OC1(c1cccc(Cl)c1)c1ccccc1Cl (stereo unspecified) |  | 44 µM |  | > 100 µM |  | 39 µM |  | 58.5 µM |  | > 100 µM |  | > 100 µM |  | 46.1 µM |  | 35 µM |
| O=c1ccn(C2CC(O)C(CO)O2)c(=O)[nH]1 (stereo unspecified) | > 5000 µM | > 5000 µM | > 5000 µM | > 5000 µM | > 5000 µM | > 5000 µM | > 5000 µM | > 5000 µM | > 5000 µM | > 5000 µM | > 5000 µM | > 5000 µM | > 5000 µM | > 5000 µM | > 5000 µM | > 5000 µM |
| COc1cc2ccccc2oc1=O |  | > 100 µM |  | > 100 µM |  | > 100 µM |  | > 100 µM |  | > 100 µM |  | > 100 µM |  | > 100 µM |  | > 100 µM |
| CC1OC(n2c3ccccc3c3c4c(c5c6ccccc6[nH]c5c32)C(=O)N(CCN[C@@H]2CCC[C@H]2N)C4=O)CC(O)C1O (stereo partly specified) | 0.835 µM | 2.68 µM | 2.35 µM | 9.9 µM | 1.74 µM | 8.85 µM | 6.45 µM | 15 µM | 1.72 µM | 7.06 µM | 1.01 µM | 4.19 µM | 1.71 µM | 6.82 µM | 0.872 µM | 2.8 µM |
| COc1ccc(C2CC(C)(O)Oc3cc4c(cc32)OCO4)cc1 (stereo unspecified) |  | > 100 µM |  | > 100 µM |  | > 88 µM |  | > 100 µM |  | > 100 µM |  | 46 µM |  | > 100 µM |  | > 100 µM |
| CC1(N)CCN(c2cccnc2NC(=O)c2nc(-c3ncccc3C(F)(F)F)cnc2N)CC1 | 21.5 µM | 53.4 µM | 15.3 µM | > 100 µM | 18.2 µM | > 100 µM | 16.6 µM | > 100 µM | 21.5 µM | > 100 µM | 5.48 µM | 36.6 µM | 26.2 µM | > 100 µM | 61.2 µM | > 100 µM |
| CCn1cc(C(=O)N/N=C/c2ccccc2)c(=O)c2cc(F)c(N3CCNC(C)C3)c(F)c21 (stereo unspecified) |  |  | 1.68 µM | 3.25 µM | 1.6 µM | 3 µM | 1.55 µM | 2.89 µM | 2.04 µM | 3.62 µM |  |  | 1.82 µM | 3.3 µM |  |  |
| O=C(N/C(=C/c1ccc(Cl)cc1Cl)c1nc2ccccc2s1)c1ccccc1 |  | 18.7 µM |  | 35.4 µM |  | 64.8 µM |  | 29.9 µM |  | 33.7 µM |  | 37.2 µM |  | 24.5 µM |  | 30.2 µM |
| CC(=O)OC[C@]12CC[C@@H](C(=O)CBr)[C@@H]1[C@H]1CC[C@@H]3[C@@]4(C)CCCNC(C)(C)[C@@H]4CC[C@@]3(C)[C@]1(C)CC2 | 1.76 µM | 3.31 µM | 1.65 µM | 3.27 µM | 2.2 µM | 5.52 µM | 1.71 µM | 4.04 µM | 3.89 µM | 18.9 µM | 3.92 µM | 17.2 µM | 1.93 µM | 3.85 µM | 2.11 µM | 4.71 µM |
| COc1cc2c3c(n(CCCCN)c(=O)c2cc1OC)-c1cc2c(cc1C3=O)OCO2 | 0.107 µM | 0.529 µM | 0.172 µM | 0.889 µM | 1.17 µM | 4.84 µM | 2.97 µM | 12 µM | 0.719 µM | 4.66 µM | 1.04 µM | 6.17 µM | 1.01 µM | 2.67 µM | 0.216 µM | 1.04 µM |
| COC(=O)[C@@]12OC[C@]34[C@H]([C@@H](O)[C@@H]1O)[C@@]1(C)[C@H](O)C(=O)C=C(C)[C@@H]1C[C@H]3OC(=O)C(OC(C)=O)[C@@H]24 (stereo partly specified) | 0.0152 µM | 0.0311 µM | 0.026 µM | 0.0889 µM | 0.0182 µM | 0.0561 µM | 0.113 µM | 0.449 µM | 0.0398 µM | 0.272 µM | 0.0408 µM | 0.178 µM | 0.0248 µM | 0.0714 µM | 0.0245 µM | 0.142 µM |
| COc1ccc(-c2nc(-c3ccccc3)c(-c3ccccc3)[nH]2)cc1OC1CCCC1 | 34.3 µM | > 100 µM | > 100 µM | > 100 µM | > 100 µM | > 100 µM | > 100 µM | > 100 µM | > 100 µM | > 100 µM | > 100 µM | > 100 µM | > 100 µM | > 100 µM | > 100 µM | > 100 µM |
| O=C(Nc1cccc(-n2cc(-c3ccncc3)c(-c3ccc(Cl)c(O)c3)n2)c1)c1ccc(N2CCOCC2)c(C(F)(F)F)c1 | 1.64 µM | 7.29 µM | 2.83 µM | 12.5 µM | 19.4 µM | > 50 µM | 2.6 µM | 34.3 µM | 39.2 µM | > 50 µM | > 50 µM | > 50 µM | 4.81 µM | > 50 µM | 3.26 µM | 18.4 µM |
